Test results taken from article PMC10115881, “Disrupting the α-synuclein-ESCRT interaction with a peptide inhibitor mitigates neurodegeneration in preclinical models of Parkinson’s disease” (Nature Communications, 2023).

Test system: A53T a-syn
Assay: A53T a-syn immunofluorescence in rat cortical neurons
Type: cell-based, human
Conditions: primary rat cortical neurons
Text: Pregnant rats (E17) of the Sprague-Dawley strain were purchased from Envigo. Embryos were surgically removed from the mothers and cortices dissected in Hanks Balanced salt solution (Gibco). The meninges were removed, and cells were dissociated using a papain dissociation system (Worthington) before being resuspended in Neurobasal medium A supplemented with antibiotic-antimycotic solution (Gibco), L-glutamine substitute (GlutaMAX™; Gibco) and factor B27 (Gibco). […]
After fixation, cells were permeabilized with 0.2% Triton-X-100 for 15 min, washed three times with PBS and then incubated with blocking solution (1% BSA, 22.52 mg/mL glycine, 0.1% Tween-20 in PBS or 0.4% saponin, 1% BSA, and 5% goat or donkey serum in PBS) for 1 h. […] Following another three washes with PBS, nuclei were counterstained with DAPI (ThermoFisher) and then coverslips were mounted on slides using Dako fluorescence mounting medium (Agilent) and sealed using clear nail varnish.
Confocal images of immunofluorescent staining were acquired with a Zeiss LSM880 confocal microscope equipped with 405, 488, 555, and 639 nm laser lines. All images were taken within the linear range at constant gain and pinhole settings at optimal resolution settings determined by the software. […]

## DEEIERQLKALG [PDpep1.3]
  Effect on A53T a-syn fluorescence: significant decrease in A53T a-syn fluorescence intensity
